Assay results reported in US20260248087A1, “GENERATING DOUBLED HAPLOID PLANTS” (Syngenta Crop Protection AG, priority 2023, published 2026).

Tests used:
GST27 [1] = assay: GST27 induction, metcamifen pre-treatment of maize ears; assay type: cell-based
Method: (§1) For the examples below, GST27 was used as a quick indicator for treatment effectiveness.
The effect of temperature was tested independently by comparing 6° C. and 28° C. for both 3 and 5 days with 150 PAR light.
Maize ears were pre-treated with metcamifen prior to embryo isolation and before moving the embryos to colchicine-containing doubling media. In all experiments, doubling media is semi-solid, thickened with Gelzan, unless liquid media is specified. Two methods of delivering the safener at concentrations of 100 and 1000 mg/L were tested. The first method wrapped the ear in a paper towel that was wet with formulated metcamifen. The second method used a sprayer to deliver the formulated metcamifen onto the ear surface at 6° C. with 150 PAR light. GST27 was measured after metcamifen pre-treatment and again at the end of colchicine treatment. A low level of GST27 was induced (<10 ng/mg Total Soluble Protein (TSP)) at the end of the ear pre-treatment. Following ear pre-treatment, embryos were isolated and treated with colchicine for 48 hours.
The addition of 0.5% Tween20 in the formulation with metcamifen at both 100 and 1000 mg/L was tested in combination with spraying corn ears as a pre-treatment prior to embryo isolation.

embryos from maize ears = assay: Potted rate after metcamifen pre-treatment of isolated embryos; assay type: in vivo
Source text: As used herein, the term “potted rate” or “potting rate” refers to the percent of germinated embryos successfully transferred to soil from total treated haploid embryos. The “potted rate” is used as an indication of plant health in monitoring the success of recovery and growth after treatment of haploids. As used herein, the term “transplant rate” refers to the survival of healthy plants after embryos were germinated and transferred to soil.
Embryos from maize ears were isolated and treated with metcamifen prior to a colchicine doubling treatment. Isolated embryos plated on filter paper were pre-treated with a formulation of metcamifen at concentrations of 0, 10, 100, and 1000 mg/L in Murashige and Skoog Medium (MS media) for a duration of 1, 3, 5, or 7 days at 6° C. with 150 PAR light. GST27 induction was measured after pre-treatment at each time point and again at the end of the colchicine treatment. Resulting embryos were germinated, and the percentage of embryos successfully transferred to soil (percent potted rate) was measured as an indicator of plant health and pre-treatment effectiveness. GST27 was induced by metcamifen at a medium level ([…] of TSP), but higher than ear pre-treatment that was less than 10 ng/ml of TSP.
Embryo pre-treatment with metcamifen at 10 mg/L was tested at temperatures of 6° C. and 20° C. for 1 day to measure the impact of temperature on embryo health.

GST27 [2] = assay: GST27 induction, metcamifen post-treatment during germination; assay type: cell-based, maize; settings: for GST27 Mean: post-treatment in germination media (2.5 g/L Gelzan)
Method: as §1
Doubled haploid embryos were treated with metcamifen during germination. Metcamifen was tested in the germination media at 0, 5, and 10 mg/L after colchicine treatment completion for 24 or 48 hours. The germination media comprised Gelzan at a concentration of 3.5 g/L. Four genotypes were tested representing two heterotic groups. […] The percent potting rate was not increased as result of these post-treatments. […] This led to a looping of the roots. A reduction in Gelzan concentration from 3.5 g/L to 2.5 g/L was tested (comparison data not presented here). The experiments were then carried out with 2.5 g/L Gelzan for metcamifen post-treatments while the control (0 metcamifen) contained 3.5 g/L Gelzan. Metcamifen was tested as 0, 5, 10 and 20 mg/L after colchicine treatment completion for 24 and 48 hours. The reduction in Gelzan of the metcamifen post-treatments led to a higher percent potting rate (see Table 5).

CNC(=O)Nc1ccc(S(=O)(=O)NC(=O)c2ccccc2OC)cc1 [Metcamifen, metcamifen]
GST27 induced at the end of the ear pre-treatment (GST27 [1]; ear pre-treatment, 100 and 1000 mg/L, 6° C.): < 10 ng/mg Total Soluble Protein (TSP) | GST27 induced by ear pre-treatment (GST27 [1]; ear pre-treatment, as restated in Example 3): less than 10 ng/ml of TSP | GST27 before doubling, Mean (GST27 [1]; ear pre-treatment, metcamifen 100 mg/L, 3 days, 6° C.): 4 ng/mg of TSP | GST27 after doubling, Mean (GST27 [1]; ear pre-treatment, metcamifen 100 mg/L, 3 days, 6° C., then colchicine 48 hours): 156 ng/mg of TSP | GST27 before doubling, Mean (GST27 [1]; ear pre-treatment, metcamifen 100 mg/L, 5 days, 6° C.): 2 ng/mg of TSP | GST27 after doubling, Mean (GST27 [1]; ear pre-treatment, metcamifen 100 mg/L, 5 days, 6° C., then colchicine 48 hours): 245 ng/mg of TSP | GST27 before doubling, Mean (GST27 [1]; ear pre-treatment, metcamifen 1000 mg/L, 3 days, 6° C.): 3 ng/mg of TSP | GST27 after doubling, Mean (GST27 [1]; ear pre-treatment, metcamifen 1000 mg/L, 3 days, 6° C., then colchicine 48 hours): 178 ng/mg of TSP | GST27 before doubling, Mean (GST27 [1]; ear pre-treatment, metcamifen 1000 mg/L, 5 days, 6° C.): 4 ng/mg of TSP | GST27 after doubling, Mean (GST27 [1]; ear pre-treatment, metcamifen 1000 mg/L, 5 days, 6° C., then colchicine 48 hours): 303 ng/mg of TSP | GST27 induction at the end of the colchicine treatment (GST27 [1]; ear pre-treatment, then colchicine 48 hours): increased but insignificant | GST27 expression level with addition of 0.5% Tween20 (GST27 [1]; spraying corn ears, 100 and 1000 mg/L, over 4 days): did not improve | Potted Rate Mean (embryos from maize ears; embryo pre-treatment 10 mg/L in MS media, 1 day, 6° C. (Table 3 experiment)): 62% | Potted Rate Mean (embryos from maize ears; embryo pre-treatment 10 mg/L in MS media, 1 day, 6° C. (Table 3 experiment), listed as metcamifen): significantly higher potting rate than the control | Potted Rate Mean (embryos from maize ears; embryo pre-treatment 10 mg/L in MS media, 1 day, 20° C.): 23% | Potted Rate Mean (embryos from maize ears; embryo pre-treatment 10 mg/L in MS media, 1 day, 20° C., listed as metcamifen): 2% | Potted Rate Mean (embryos from maize ears; embryo pre-treatment in MS media, 10 mg/L, 1 day, 6° C.): 46% | Potted Rate Mean (embryos from maize ears; embryo pre-treatment in MS media, 10 mg/L, 3 days, 6° C.): 38% | Potted Rate Mean (embryos from maize ears; embryo pre-treatment in MS media, 10 mg/L, 5 days, 6° C.): 4% | Potted Rate Mean (embryos from maize ears; embryo pre-treatment in MS media, 10 mg/L, 7 days, 6° C.): 27% | Potted Rate Mean (embryos from maize ears; embryo pre-treatment in MS media, 100 mg/L, 1 day, 6° C.): 12% | Potted Rate Mean (embryos from maize ears; embryo pre-treatment in MS media, 100 mg/L, 3 days, 6° C.): 12% | Potted Rate Mean (embryos from maize ears; embryo pre-treatment in MS media, 100 mg/L, 5 days, 6° C.): 16% | Potted Rate Mean (embryos from maize ears; embryo pre-treatment in MS media, 100 mg/L, 7 days, 6° C.): 24% | Potted Rate Mean (embryos from maize ears; embryo pre-treatment in MS media, 1000 mg/L, 1 day, 6° C.): 10% | Potted Rate Mean (embryos from maize ears; embryo pre-treatment in MS media, 1000 mg/L, 3 days, 6° C.): 16% | Potted Rate Mean (embryos from maize ears; embryo pre-treatment in MS media, 1000 mg/L, 5 days, 6° C.): 17% | Potted Rate Mean (embryos from maize ears; embryo pre-treatment in MS media, 1000 mg/L, 7 days, 6° C.): 17% | GST27 expression versus control (GST27 [2]; post-treatment 5 and 10 mg/L, 3.5 g/L Gelzan, 24 and 48 hours): higher than the control group | GST27 Mean (GST27 [2]; 5 mg/L, Duration 24 hours): 327 ng/mg TSP | GST27 Mean (GST27 [2]; 5 mg/L, Duration 48 hours): 317 ng/mg TSP | GST27 Mean (GST27 [2]; 10 mg/L, Duration 24 hours): 345 ng/mg TSP | GST27 Mean (GST27 [2]; 10 mg/L, Duration 48 hours): 290 ng/mg TSP | GST27 Mean (GST27 [2]; 20 mg/L, Duration 24 hours): 404 ng/mg TSP | GST27 Mean (GST27 [2]; 20 mg/L, Duration 48 hours): 400 ng/mg TSP
